This is an account of results in article PMC6332427, “Drug Discovery of Host CLK1 Inhibitors for Influenza Treatment” (Molecules, 2015).

The test system of assay [1] is influenza virus A/PR/8/34 (H1N1). The following applies: 24 h, mean ± SD.
The next assay concerns CLK1. The following applies: cited from earlier work.

A word on the IC50: it is the concentration at which inhibition is half-maximal.

As for `CCN1/C(=C/C(C)=O)Sc2ccc(OC)cc21` [TG003, reference compound], the “Post-Treatment Assay EC50” value in assay [1] (H1N1 (MOI 0.01) incubated with MDCK cells 2 h, then compound) was 3.56 ± 1.47 µg/mL. Moreover, the “Pre-Treatment Assay EC50” value in assay [1] (H1N1 (MOI 0.01) pre-incubated with compound 2 h at 37 °C before addition to MDCK cells) worked out at 5.09 ± 0.78 µg/mL. Further, the “Simultaneous Treatment Assay EC50” value in assay [1] (compound added along with H1N1 (MOI 0.01) to MDCK cells) came out at 15.75 ± 3.49 µg/mL. Besides, in the assay with CLK1, the IC50 is […].
